What was measured:
[1] = 101 kPa, Liquid
[2] = xn = mol fraction of the nth substance listed; conditions: 101 kPa, Liquid

CCC(=O)[O-].OCC[NH2+]CCO [bis(2-hydroxyethyl)ammonium propanoate]
[1]
Conditions	mass density [kg/m3]	viscosity [mPa·s]
293.15 K	1142.7	740.28
303.15 K	1136.1	322.17
313.15 K	1129.2	157.97
323.15 K	1125.2	96.54

CCC(=O)[O-].OCC[NH2+]CCO [bis(2-hydroxyethyl)ammonium propanoate] + CCCO
[2]
Conditions	mass density, 293.15 K [kg/m3]	mass density, 303.15 K [kg/m3]	mass density, 313.15 K [kg/m3]	mass density, 323.15 K [kg/m3]	viscosity, 293.15 K [mPa·s]	viscosity, 303.15 K [mPa·s]	viscosity, 313.15 K [mPa·s]	viscosity, 323.15 K [mPa·s]
x1 = 0.0585	846.5	839	831.3	823.1	31.6	15.37	6.146	3.897
x1 = 0.1031	875.3	867.9	860.4	852.6	53.29	21.15	9.633	6.039
x1 = 0.2292	942.2	935	927.7	920.9	120.07	47.98	21.6	13.44
x1 = 0.3021	973.6	966.5	959.3	952.9	161.5	66.19	29.62	18.46
x1 = 0.4017	1010.3	1003.3	996.2	990.3	221.9	91.87	41.98	26.24
x1 = 0.5009	1041.2	1034.3	1027.3	1021.9	288.32	119.16	56.4	35.31
x1 = 0.636	1076.2	1069.4	1062.5	1057.6	393.08	163.5	80.35	50.21
x1 = 0.7135	1093.1	1086.4	1079.5	1074.8	461.84	194.52	96.42	60.05
x1 = 0.8018	1110.2	1103.5	1096.5	1092.1	547.5	234.75	116.23	72
x1 = 0.8979	1126.6	1119.9	1113	1108.8	646.69	281.11	138.08	84.93
x1 = 0.9568	1136	1129.3	1122.4	1118.4	701.08	304.98	149.64	92.03
x1 = 1	1142.7	1136.1	1129.2	1125.2	740.28	322.17	157.97	96.54

CCC(=O)[O-].OCC[NH2+]CCO [bis(2-hydroxyethyl)ammonium propanoate] + CCO
[2]
Conditions	mass density, 293.15 K [kg/m3]	mass density, 303.15 K [kg/m3]	mass density, 313.15 K [kg/m3]	mass density, 323.15 K [kg/m3]	viscosity, 293.15 K [mPa·s]	viscosity, 303.15 K [mPa·s]	viscosity, 313.15 K [mPa·s]	viscosity, 323.15 K [mPa·s]
x1 = 0.0536	842.7	834.4	826.6	818.5	28.36	14.2	5.271	3.309
x1 = 0.1087	887.2	879.2	871.7	864.2	55.19	21.36	9.602	5.974
x1 = 0.2052	947	939.4	932.2	925.5	105.81	41.43	18.6	11.54
x1 = 0.3168	997.5	990.1	983	977.1	167.85	68.6	30.49	18.98
x1 = 0.4238	1034.5	1027.3	1020.2	1014.8	231.31	95.16	43.46	27.2
x1 = 0.5084	1058.3	1051.2	1044.2	1039.1	284.44	116.45	54.87	34.45
x1 = 0.5946	1078.8	1071.8	1064.9	1060	343.18	140.21	68.08	42.81
x1 = 0.6965	1099.1	1092.3	1085.4	1080.8	428.04	177.51	88.08	55.22
x1 = 0.804	1116.8	1110	1103.1	1098.8	531.61	226.45	112.51	70.07
x1 = 0.8895	1128.8	1122	1115.1	1111	626.32	271.72	133.71	82.61
x1 = 0.9458	1136	1129.3	1122.4	1118.3	686.37	298.35	146.49	90.38
x1 = 1	1142.7	1136.1	1129.2	1125.2	740.28	322.17	157.97	96.54

CCC(=O)[O-].OCC[NH2+]CCO [bis(2-hydroxyethyl)ammonium propanoate] + CO
[2]
Conditions	mass density, 293.15 K [kg/m3]	mass density, 303.15 K [kg/m3]	mass density, 313.15 K [kg/m3]	mass density, 323.15 K [kg/m3]	viscosity, 293.15 K [mPa·s]	viscosity, 303.15 K [mPa·s]	viscosity, 313.15 K [mPa·s]	viscosity, 323.15 K [mPa·s]
x1 = 0.0437	851.2	842.3	833.3	826.8	23.19	13.01	4.242	2.639
x1 = 0.1045	913.4	905.2	896.9	891.1	52.44	20.18	8.903	5.509
x1 = 0.2138	987.8	980.3	972.6	967.8	109.39	42.76	19	11.76
x1 = 0.2957	1024.6	1017.4	1010	1005.5	153.61	62.12	27.33	16.99
x1 = 0.4	1058.1	1051.2	1044	1039.7	210.82	86.11	38.58	24.16
x1 = 0.5038	1082.4	1075.6	1068.6	1064.6	269.65	109.07	50.82	32.04
x1 = 0.6125	1101.8	1095.2	1088.3	1084.5	337.06	135.36	65.92	41.76
x1 = 0.6981	1114	1107.6	1100.9	1097.1	399.51	162.04	80.81	51.21
x1 = 0.8026	1126.4	1120	1113.3	1109.7	496.91	208.61	104.49	65.82
x1 = 0.9121	1136.5	1130.1	1123.4	1119.7	636.96	276.64	135.75	84.16
x1 = 0.9587	1140	1133.5	1126.8	1123	692.41	301.08	147.67	91.46
x1 = 1	1142.7	1136.1	1129.2	1125.2	740.28	322.17	157.97	96.54

CCO [ethanol]
[1]
Conditions	mass density [kg/m3]	viscosity [mPa·s]
293.15 K	789.3	1.18
303.15 K	780.7	1.019
313.15 K	772.5	0.8424
323.15 K	763.6	0.7081

CCO [ethanol] + CCC(=O)[O-].OCC[NH2+]CCO
[2], x2 = 0
Conditions	mass density [kg/m3]	viscosity [mPa·s]
293.15 K	789.3	1.18
303.15 K	780.7	1.019
313.15 K	772.5	0.8424
323.15 K	763.6	0.7081

CO [methanol]
[1]
Conditions	mass density [kg/m3]	viscosity [mPa·s]
293.15 K	791.2	0.6075
303.15 K	781.8	0.5535
313.15 K	772.3	0.501
323.15 K	765.1	0.4601

CO [methanol] + CCC(=O)[O-].OCC[NH2+]CCO
[2], x2 = 0
Conditions	mass density [kg/m3]	viscosity [mPa·s]
293.15 K	791.2	0.6075
303.15 K	781.8	0.5535
313.15 K	772.3	0.501
323.15 K	765.1	0.4601

CCCO [propan-1-ol]
[1]
Conditions	mass density [kg/m3]	viscosity [mPa·s]
293.15 K	803.2	2.141
303.15 K	795.5	1.788
313.15 K	787.6	1.391
323.15 K	778.7	1.098

CCCO [propan-1-ol] + CCC(=O)[O-].OCC[NH2+]CCO
[2], x2 = 0
Conditions	mass density [kg/m3]	viscosity [mPa·s]
293.15 K	803.2	2.141
303.15 K	795.5	1.788
313.15 K	787.6	1.391
323.15 K	778.7	1.098

Reference: the NIST ThermoML archive (doi:10.1021/je100848r)
